Measured values reported in US9320750B2, “Compositions and methods of treatment of drug resistant cancers” (priority 2012, dated 2016).
Entries after “also recorded” stand apart in the source; their conditions may differ. Like-named read-outs stand apart in the source and are kept apart here.

Tests used:
BT-20 xenograft tumors = assay: Xenograft tumor model
Hs578Bst = assay: Apoptosis, cleaved caspase-3/cleaved PARP flow cytometry; format: cell-based, human; conditions: erlotinib-doxorubicin combinations; normal peripheral breast tissue line
Experimental: (§1) 1×10^6 cells were seeded in a 10 cm dish 24 hr prior to the experiment. […] Following the treatment time course, cells were washed in PBS, trypsinized, and fixed in 4% paraformaldehyde (PFA) in PBS for 15 min at room temperature (RT), then resuspended in ice cold methanol and incubated overnight at −20° C. Cells were then washed twice in PBS+0.1% Tween and stained with antibodies directed against cleaved forms of caspase-3 and PARP (BD PharMingen). […] Data reported are always percent cleaved-caspase-3/cleaved-PARP double positive cells.
(§2) Following the treatment time course, cells were washed, trypsinized, fixed in 4% paraformaldehyde for 15 min at room temperature, resuspended in ice-cold methanol, and incubated overnight at −20° C. Cells were then washed twice in PBS-Tween and stained with antibodies against cleaved caspase-3 and poly(ADP-ribose) polymerase (PARP). Secondary Alexa-conjugated anti-bodies were used for visualization in a BD FacsCaliber flow cytometer.

BT-474 cells = assay: as above; format: cell-based, human
Experimental: (§3) 1×10^6 cells were seeded in a 10 cm dish 24 hr prior to the experiment. […]. Following the treatment time course, cells were washed in PBS, trypsinized, and fixed in 4% paraformaldehyde (PFA) in PBS for 15 min at room temperature (RT), then resuspended in ice cold methanol and incubated overnight at −20° C. Cells were then washed twice in PBS+0.1% Tween and stained with antibodies directed against cleaved forms of caspase-3 and PARP (BD PharMingen). Secondary antibodies conjugated to Alexa dyes (488 and 647) were used for visualization in a BD FacsCaliber flow cytometer (Molecular Probes). Data reported are always percent cleaved-caspase-3/cleaved-PARP double positive cells.
as §2

MDA-MB-453 cells [1] = assay: as above; format: cell-based, human
Experimental: as §3, §2

MCF7 cells [2] = assay: RNA expression analysis by microarray; format: cell-based, human; conditions: erlotinib alone, 24 hr
Source text: (§4) RNA was extracted from cells using the RNAeasy Kit (QIAGEN). Affymetrix Human U133 Plus 2.0 microarrays were hybridized, labeled, and processed on a fee-for-service basis through the MIT BioMicro Center. Microarray data were obtained from three independent biological replicates per time point and analyzed using linear model for microarray (LIMMA).
(§5) RNA was extracted from cells using the RNAeasy Kit (QIAGEN). Affymetrix Human U133 Plus 2.0 microarrays were hybridized, labeled and processed on a fee-for-service basis through the BioMicro Center at MIT. Microarray data were obtained from 3 independent biological replicates per time point. Detailed analysis of microarray data was performed with help from the Bioinformatics Core Facility at the Koch Institute at MIT. Expression data can be found in the GEO repository under the accession number GSE30516.

BT-20 cells [3] = assay: RNA expression analysis by microarray; format: cell-based, human; conditions: for differentially expressed genes (DEGs): erlotinib alone
Source text: as §4, §5

MDA-MB-453 cells [4] = assay: RNA expression analysis by microarray; format: cell-based, human; conditions: erlotinib alone, 24 hr
Source text: as §4, §5

BT-20 cells [5] = system: BT-20 cells
Experimental: as §1, §2

NCI-H1650 cells = assay: Apoptosis, cleaved caspase-3/cleaved PARP flow cytometry; conditions: time-staggered inhibition of EGFR using erlotinib (ERL→DOX)
A549 = assay: as above; conditions: time-staggered inhibition of EGFR using erlotinib (ERL→DOX)
MCF7 cells [6] = assay: as above
NCI-H358 = assay: as above; conditions: time-staggered inhibition of EGFR using erlotinib (ERL→DOX)
[7] = system: ten triple-negative cell lines; assay: Apoptosis across panel of triple-negative cell lines; format: cell-based, human; conditions: time-staggered ERL→DOX
Experimental: as §3, §2

BT-20 cells [8] = assay: Soft agar growth assay; format: cell-based, human; conditions: sustained EGFR inhibition with erlotinib
Experimental: Soft agar growth assays were performed as described by Sapi, E., Flick, M. B., Rodov, S, and Kacinski, B. M. (1998). Ets-2 Transdominant Mutant Abolishes Anchorage-Independent Growth and Macrophage Colony Stimulating Factor-Stimulated Invasion by BT20 Breast Carcinoma Cells. Cancer Res. 58, 1027-1033.

caspase-8 [9] = assay: Caspase-8 cleavage by western blot in lung cancer cell lines; format: cell-based, human; conditions: ERL→DOX in NCI-H1650, A549 and NCI-H358
Source text: (§6) Cells were lysed in a manner that would allow samples to be used for both western blot analysis and reverse-phase protein microarray. Data generated by quantitative western blot were preprocessed prior to use in computational modeling. Raw signals for each protein target of interest were quantified and background subtracted using the Li-COR Odyssey software and divided by P-actin signals to normalize for loading differences, and then each normalized signal was divided by a reference sample contained on each gel for gel-to-gel normalization.

caspase-8 [10] = assay: Caspase-8 cleavage by western blot in TNBC cell lines; format: cell-based, human; conditions: TNBC cell lines in which ERL→DOX was synergistic; 8 hr after DOX
Source text: as §6

caspase-8 [11] = assay: Caspase-8 cleavage by western blot in HER2-driven cells; format: cell-based, human; conditions: lapatinib/doxorubicin combinations in HER2-driven cells (MDA-MB-453, BT-474)
Source text: as §6

[12] = single dose doxorubicin alone, 4 mg/kg intraperitoneally
[13] = all temporal combinations of lapatinib and doxorubicin, HER2-overexpressing cells
[14] = lapatinib pretreatment (LAP→DOX)

Structure (SMILES): COc1cccc2c1C(=O)c1c(O)c3c(c(O)c1C2=O)C[C@@](O)(C(=O)CO)C[C@@H]3O[C@H]1C[C@H](N)[C@H](O)[C@H](C)O1 [doxorubicin]
- time at which residual tumors reached pretreatment volume (BT-20 xenograft tumors; [12]): 14 days
- tumor volume over the first 3 days after treatment (BT-20 xenograft tumors; [12]): marked reduction in tumor volume

Structure (SMILES): C#Cc1cccc(Nc2ncnc3cc(OCCOC)c(OCCOC)cc23)c1 [erlotinib]
- effect of order and timing of drug addition on apoptosis (Hs578Bst): little effect
- effect on sensitivity to doxorubicin (BT-474 cells; pretreatment with erlotinib): desensitization
- effect on doxorubicin sensitivity (MDA-MB-453 cells [1]; chronic EGFR inhibition, erlotinib pretreatment before doxorubicin): antagonized doxorubicin sensitivity; also recorded: desensitized
- cell death (MDA-MB-453 cells [1]; erlotinib alone): did not cause death
- genes significantly altered (MCF7 cells [2]): one
- breast cancer subtype gene expression pattern (BT-20 cells [3]; chronic erlotinib treatment): progressive time-dependent loss of basal-like gene expression with concomitant gain in luminal A-like gene expression
- differentially expressed genes (DEGs) (BT-20 cells [3]; 30 min): few
- differentially expressed genes (DEGs) (BT-20 cells [3]; 6 hr): more than 1,200
- differentially expressed genes (DEGs) (BT-20 cells [3]; 24 hr): more than 2,000
- GeneGO cellular networks with significant changes (of 34) (BT-20 cells [3]; long-term erlotinib treatment): 16
- GSEA oncogenic signatures (BT-20 cells [3]; sustained erlotinib exposure): loss of the Ras and MYC oncogenic signatures
- differentially expressed genes (DEGs) (MDA-MB-453 cells [4]): 235
- increase in cell killing (apoptotic response) (BT-20 cells [5]): ≤ 500%
- interaction with doxorubicin in killing (Chou-Talalay method) (BT-20 cells [5]): synergistic
- killing in combination with camptothecin (BT-20 cells [5]): Synergistic killing
- killing in combination with doxorubicin (BT-20 cells [5]): Synergistic killing
- effect on apoptosis of adding erlotinib to EGFR knockdown cells (BT-20 cells [5]; EGFR siRNA knockdown, delayed doxorubicin): no additional effect
- cell death (BT-20 cells [5]; erlotinib alone): did not cause death
- apoptotic stimulus (BT-20 cells [5]; erlotinib alone or added at the same time as or shortly before doxorubicin, 10 μM, TNBC (BT-20) cells): not a potent apoptotic stimulus
- sensitization to killing by doxorubicin (NCI-H1650 cells): dramatic sensitization
- sensitization to killing by doxorubicin (A549): dramatic sensitization
- interaction with doxorubicin (Chou-Talalay method) (MCF7 cells [6]; all temporal erlotinib-doxorubicin combinations): merely additive
- cell death (MCF7 cells [6]; erlotinib alone): did not cause death
- tumor regrowth (BT-20 xenograft tumors; erlotinib 25 mg/kg given 8 hr prior to doxorubicin 4 mg/kg (E→D), i.p., 14 day monitoring): failed to regrow
- initial reduction in tumor size versus doxorubicin alone (BT-20 xenograft tumors; erlotinib 25 mg/kg given at the same time as doxorubicin 4 mg/kg (D/E), i.p.): initial reduction in tumor size was greater
- sensitization to killing by doxorubicin (NCI-H358): dramatic sensitization
- cell lines with enhanced sensitivity to doxorubicin ([7]; sustained EGFR inhibition): nine of ten
- cell lines with synergistic effect ([7]; Chou-Talalay combination index): four of the ten
- soft agar colony formation (BT-20 cells [8]): potently inhibited
- caspase-8 cleavage (caspase-8 [9]): associated with caspase-8 cleavage
- caspase-8 cleavage (caspase-8 [10]): caspase-8 cleavage following sequential administration, but not other drug treatments

Structure (SMILES): CS(=O)(=O)CCNCc1ccc(-c2ccc3ncnc(Nc4ccc(OCc5cccc(F)c5)c(Cl)c4)c3c2)o1 [lapatinib]
- interaction with doxorubicin (BT-474 cells; [13]): synergistic
- effect on sensitivity to doxorubicin (BT-474 cells; [14]): enhanced sensitivity to doxorubicin
- interaction with doxorubicin (MDA-MB-453 cells [1]; [13]): synergistic
- effect on sensitivity to doxorubicin (MDA-MB-453 cells [1]; [14]): enhanced sensitivity to doxorubicin
- killing in combination with camptothecin (BT-20 cells [5]; time-staggered pretreatment with EGFR inhibitor, then camptothecin): Synergistic killing
- killing in combination with doxorubicin (BT-20 cells [5]; time-staggered pretreatment with EGFR inhibitor, then doxorubicin): Synergistic killing
- caspase-8 cleavage (caspase-8 [11]): only observed following LAP→DOX treatment
